Patent US10221225B2, “Peptides and combination of peptides and scaffolds thereof for use in immunotherapy against colorectal carcinoma (CRC) and other cancers” (immatics biotechnologies GmbH, priority 2015, dated 2019)

Key:
CD8+ T-cells = assay: In vitro T-cell priming assay with aAPCs loaded with peptide/MHC and anti-CD28, pMHC multimer readout; assay type: cell-based, human; conditions: in vitro immunogenicity, HLA-A*02 restricted peptides
From the text: In order to obtain information regarding the immunogenicity of the TUMAPs of the present invention, the inventors performed investigations using an in vitro T-cell priming assay based on repeated stimulations of CD8+ T-cells with artificial antigen presenting cells (aAPCs) loaded with peptide/MHC complexes and anti-CD28 antibody.
In order to perform in vitro stimulations by artificial antigen presenting cells loaded with peptide-MHC complex (pMHC) and anti-CD28 antibody, the inventors first isolated CD8+ T-cells from fresh HLA-A*02 leukopheresis products via positive selection using CD8 microbeads (Miltenyi Biotec, Bergisch-Gladbach, Germany) of healthy donors obtained from the University clinics Mannheim, Germany, after informed consent.
PBMCs and isolated CD8+ lymphocytes were incubated in T-cell medium (TCM) until use consisting of RPMI-Glutamax (Invitrogen, Karlsruhe, Germany) supplemented with 10% heat inactivated human AB serum (PAN-Biotech, Aidenbach, Germany), 100 U/ml Penicillin/100 μg/ml Streptomycin (Cambrex, Cologne, Germany), 1 mM sodium pyruvate (CC Pro, Oberdorla, Germany), 20 μg/ml Gentamycin (Cambrex). 2.5 ng/ml IL-7 (PromoCell, Heidelberg, Germany) and 10 U/ml IL-2 (Novartis Pharma, Nürnberg, Germany) were also added to the TCM at this step.
Generation of pMHC/anti-CD28 coated beads, T-cell stimulations and readout was performed in a highly defined in vitro system using four different pMHC molecules per stimulation condition and 8 different pMHC molecules per readout condition.
The purified co-stimulatory mouse IgG2a anti human CD28 Ab 9.3 (Jung et al., 1987) was chemically biotinylated using Sulfo-N-hydroxysuccinimidobiotin as recommended by the manufacturer (Perbio, Bonn, Germany). Beads used were 5.6 μm diameter streptavidin coated polystyrene particles (Bangs Laboratories, Illinois, USA).
800,000 beads/200 μl were coated in 96-well plates in the presence of 4×12.5 ng different biotin-pMHC, washed and 600 ng biotin anti-CD28 were added subsequently in a volume of 200 μl. Stimulations were initiated in 96-well plates by co-incubating 1×10^6 CD8+ T-cells with 2×10^5 washed coated beads in 200 μl TCM supplemented with 5 ng/ml IL-12 (PromoCell) for 3 days at 37° C. Half of the medium was then exchanged by fresh TCM supplemented with 80 U/ml IL-2 and incubating was continued for 4 days at 37° C. This stimulation cycle was performed for a total of three times. For the pMHC multimer readout using 8 different pMHC molecules per condition, a two-dimensional combinatorial coding approach was used as previously described (Andersen et al., 2012) with minor modifications encompassing coupling to 5 different fluorochromes. Finally, multimeric analyses were performed by staining the cells with Live/dead near IR dye (Invitrogen, Karlsruhe, Germany), CD8-FITC antibody clone SK1 (BD, Heidelberg, Germany) and fluorescent pMHC multimers. For analysis, a BD LSRII SORP cytometer equipped with appropriate lasers and filters was used. Peptide specific cells were calculated as percentage of total CD8+ cells. Evaluation of multimeric analysis was done using the FlowJo software (Tree Star, Oregon, USA). In vitro priming of specific multimer+ CD8+ lymphocytes was detected by comparing to negative control stimulations.

HLA-A*02:01 = HLA-A*02:01 (Homo sapiens, UniProt P04439, D140Y/D185E/D98H/E176V/E277Q/G131W/G231S/I119V/I121R/I166T/I218V/L300P/L318F/N151K/N90K/P208A/P217A/Q86G/Q94H/R138H/R169H/T345S); assay: MHC binding assay (UV-ligand exchange, beta2m ELISA, peptide exchange yield); conditions: MHC class I binding score; binding to HLA-A*02:01 ranged by peptide exchange yield (UV-ligand exchange, β2m ELISA)
Outline: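 Peptide–MHC complexes formed by UV-ligand exchange, cleaving a UV-sensitive peptide so the test peptide can bind. Exchange yield measured by ELISA: complexes captured on streptavidin-coated wells, diluted 100-fold, detected with HRP anti-β2m (1 h, 37 °C) and TMB at 450 nm, against refolded HLA-A*02:01/MLA-001 standards (15-500 ng/ml).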

Substance	Wells positive (CD8+ T-cells)	Peptide exchange (HLA-A*02:01)
19 (RLYTKLLNEA; listed as Homo sapiens) [compound 19]	″+++″ (50%-69% = +++)	″+++″ (≥50 = +++)
21 (VLIDHRWVL; listed as Homo sapiens) [compound 21]	″+″ (<20% = +)	″+++″ (≥50 = +++)
22 (GLIDEVMVL; listed as Homo sapiens) [compound 22]	″++″ (20%-49% = ++)	″+++″ (≥50 = +++)
31 (LLYGKYVSV; listed as Homo sapiens) [compound 31]	″++″ (20%-49% = ++)	″+++″ (≥50 = +++)
32 (KLNTETFGV; listed as Homo sapiens) [compound 32]	″++″ (20%-49% = ++)	″++″ (≥20% = ++)
37 (GLFAGLGGAGA; listed as Homo sapiens) [compound 37]	″+″ (<20% = +)	″+++″ (≥50 = +++)
38 (SLAPTPVSA; listed as Homo sapiens) [compound 38]	″+″ (<20% = +)	″++″ (≥20% = ++)
42 (SILDDSFKL; listed as Homo sapiens) [compound 42]	″+″ (<20% = +)	″++++″ (≥75% = ++++)
47 (KLYERCEVV; listed as Homo sapiens) [compound 47]	″+″ (<20% = +)	″++″ (≥20% = ++)
59 (LLTDNVVKL; listed as Homo sapiens) [compound 59]	″+″ (<20% = +)	″+++″ (≥50 = +++)
64 (KTLGKLWRL; listed as Homo sapiens) [compound 64]	″++++″ (>= 70% = ++++)	″++″ (≥20% = ++)
123 (KTLERSYLL; listed as Homo sapiens) [compound 123]	″+″ (<20% = +)	″++″ (≥20% = ++)
124 (RVLPPSALQSV; listed as Homo sapiens) [compound 124]	″+″ (<20% = +)	″+++″ (≥50 = +++)
127 (RLAELTVDEFLA; listed as Homo sapiens) [compound 127]	″+″ (<20% = +)	″+++″ (≥50 = +++)
132 (ALLNAILHSA; listed as Homo sapiens) [compound 132]	″+″ (<20% = +)	″++″ (≥20% = ++)
133 (RTFEKIEEV; listed as Homo sapiens) [compound 133]	″+″ (<20% = +)	″++″ (≥20% = ++)
136 (KLFDIFSQQV; listed as Homo sapiens) [compound 136]	″++″ (20%-49% = ++)	″+++″ (≥50 = +++)
141 (AVIEHLERL; listed as Homo sapiens) [compound 141]	″+″ (<20% = +)	″++++″ (≥75% = ++++)
142 (SLVQRVETI; listed as Homo sapiens) [compound 142]	″+″ (<20% = +)	″+++″ (≥50 = +++)
150 (RLADLEALKV; listed as Homo sapiens) [compound 150]	″++″ (20%-49% = ++)	″+++″ (≥50 = +++)
